Reference: US11072806B2, “Gadusol production” (Oregon State University, priority 2018, dated 2021)
Read-outs that look alike come from different tables or passages of the source.

Key:
[1] = test system: wild-type RAD1 strain (S288c); assay: UVB irradiation of wild-type (RAD1) yeast strain suspended in gadusol-containing supernatant; type: cell-based, S. cerevisiae; conditions: higher doses of UVB; cells in 9-fold concentrated supernatant
Source text: (§1) While it would be possible to harvest gadusol from naturally occurring sources, this would not be economical for producing the quantities of gadusol needed for commercially relevant sunscreen products. To overcome this and other problems, the inventors have developed methods and compositions that allow for the high efficiency production of gadusol in microorganism host cells, such as yeast. Expressing the biosynthetic genes for gadusol in microorganisms, such as yeast, provides an opportunity to leverage in-depth knowledge of yeast biochemistry to generate a sustainable process. […] The mutant was cultured in YNB+2% glucose supplemented with leucine and lysine at 30° C. for 2 days. […] In 20 ml cultures (n=3), the recombinant yeast culture produced approximately 20 mg/I of gadusol after 5 days (FIG. 34). […] Large-scale production allows for the use of gadusol in pharmaceuticals, formulations, cosmetics or dietary formulations and products. By way of example, formulations may include pills/capsules, creams, lotions, or the like. In embodiments, the present disclosure provides for a synthetic gadusol having UV-protective activity. […] Cells were then irradiated with UVB and spotted in 3 μl aliquots (n=4) onto YEPD plates which were incubated at 30° C. for 24 h. […]

[2] = cited from earlier work; for λmax: enol form at lower pH, enolate form at neutral and basic pH
[3] = test system: rad1Δ yeast mutant; assay: UVB irradiation of UVB-sensitive rad1Δ yeast mutant suspended in gadusol-containing supernatant; type: cell-based, S. cerevisiae; conditions: cells at 10^7 cells/mL in 9-fold concentrated supernatant, UVB (302 nm), spotted on YEPD, 24 h at 30° C.
Source text: as §1

[4] = in vitro; cited from earlier work
[5] = Arbeloa et al. 2011, at respective absorbance maxima

Structure (SMILES) | UVB tolerance of wild-type (RAD1) strain [1] | extinction coefficient [2, 5] | λmax ([2]; Plack et al. 1981) [nm] | extinction coefficient ([2]; pH 7 in 50 mM phosphate, Plack et al. 1981) | UVB sensitivity of rad1Δ yeast mutant [3] | antioxidant activity [4] | quantum yield of photodecomposition relative to gadusol ([2]; Arbeloa et al. 2011) [times] | photostability ([2]; compared to gadusol)
COC1=C(O)CC(O)(CO)C(O)C1=O (stereo not shown) [gadusol, 3,5,6-trihydroxy-5-hydroxymethyl-2-methoxycyclohex-2-en-1-one] | increases UVB tolerance | 12,400 M^−1 cm^−1 | 269 | 21,800 M^−1 cm^−1 | suppresses the UVB sensitivity | exhibit antioxidant activity in vitro |  | 
COC1=C(O)CC(O)(CO)C(O)C1=O (stereo not shown) [gadusolate] |  | 21,800 M^−1 cm^−1 | 296 |  |  |  | 260 | more photostable
